The structures appear in SMILES notation. Where a name gives a salt, the structure may show the parent alone.

Series [1] can be described thus: Comparative stability of crystalline and amorphous salts of compound I, stored at 60° C., HPLC. It is filed as physicochemical. An excerpt: In the following TABLE 4 comparative stability data of the corresponding crystalline and amorphous salts of compound I are shown. [table]
In series [2] the test system is Staphylococcus aureus ATCC49951. Nature of the series: Minimum inhibitory concentration (MIC) in accordance with CLSI recommendations. It is filed as cell-based. On the procedure: (§1) The antimicrobial, e.g. antibacterial activity of 14-O-{[(4-amino-2-hydroxy-cyclohexyl)-sulfanyl]-acetyl}-mutilins was outlined in WO2008/113089. […] The minimum inhibitory concentration (MIC) was determined in accordance with CLSI recommendations.

In series [3] the test system is Streptococcus pneumoniae ATCC49619. Described as above. Type of series: cell-based. On the procedure: as §1
Series [4] in a line: Solubility of crystalline salts in water, aqueous vehicles and biorelevant media. The note with it: 0.9% NaCl solution, FaSSIF and FeSSIF. Type of series: physicochemical.
[5] abbreviates: 28 d at 60° C., * sample did not fully dissolve in water, suspension analyzed.

As to `C=C[C@]1(C)C[C@@H](OC(=O)CS[C@@H]2CC[C@@H](N)C[C@H]2O)[C@]2(C)C(C)CC[C@]3(CCC(=O)[C@H]32)[C@@H](C)[C@@H]1O` (stereo partly drawn) [Acetate (Form B) crystalline, 14-O-{[(1R,2R,4R)-4-Amino-2-hydroxy-cyclohexyl-sulfanyl]-acetyl}-mutilin acetate, crystalline Form B], the “Area % of 14-O-{[(1R,2R,4R)-4-amino-2-hydroxy-cyclohexylsulfanyl]-acetyl}-mutilin (compound I) by HPLC stored at 60° C.” value amounted to 98.9 Area % in series [1] (setting [5]) and 99.5 Area % in series [1] (Initial).

In general, MIC refers to the smallest concentration in the dilution series that meets the test's criterion for growth inhibition. As for `C=C[C@]1(C)C[C@@H](OC(=O)CS[C@@H]2CC[C@@H](N)C[C@H]2O)[C@]2(C)C(C)CC[C@]3(CCC(=O)[C@H]32)[C@@H](C)[C@@H]1O` (stereo partly drawn) [compound of formula I, 14-O-{[(1R,2R,4R)-4-amino-2-hydroxy-cyclohexylsulfanyl]-acetyl}-mutilin], the MIC in series [2] and in series [3] was less than 0.4 µg/mL in each case.

`C=C[C@]1(C)C[C@@H](OC(=O)CS[C@@H]2CC[C@@H](N)C[C@H]2O)[C@]2(C)C(C)CC[C@]3(CCC(=O)[C@H]32)[C@@H](C)[C@@H]1O` (stereo partly drawn) [Hydrogen maleate crystalline, 14-O-{[(1R,2R,4R)-4-Amino-2-hydroxy-cyclohexylsulfanyl]-acetyl}-mutilin hydrogenmaleate, crystalline Form 1]: the solubility result in series [4] is “surprisingly high”.

With `C=C[C@]1(C)C[C@@H](OC(=O)CS[C@@H]2CC[C@@H](N)C[C@H]2O)[C@]2(C)C(C)CC[C@]3(CCC(=O)[C@H]32)[C@@H](C)[C@@H]1O` (stereo partly drawn) [L-Lactate crystalline, 14-O-{[(1R,2R,4R)-4-Amino-2-hydroxy-cyclohexylsulfanyl]-acetyl}-mutilin L-lactate, crystalline Form 1], the “Area % of 14-O-{[(1R,2R,4R)-4-amino-2-hydroxy-cyclohexylsulfanyl]-acetyl}-mutilin (compound I) by HPLC stored at 60° C.” value is recorded as 98.3 Area % in series [1] (setting [5]) and 99.4 Area % in series [1] (Initial). Moreover, the solubility result in series [4] is “surprisingly high”.
